Measurements published in PubChem BioAssay (NCI).
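Values below derive from 48-hour exposures of cells grown in 96-well plates, with endpoints linearly interpolated between the two concentrations bracketing the appropriate inhibition level. GI50 = concentration required for 50% inhibition of growth. At the TGI there is no net growth.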

Legend:
Experiment in all cases: NCI anticancer screen, dose series, 48 h
[1] = system: 786-0 renal
[2] = system: ACHN renal
[3] = system: COLO 205 colon
[4] = system: HL-60(TB) leukemia
[5] = system: HOP-92 NSCLC
[6] = system: K-562 leukemia
[7] = system: MALME-3M melanoma
[8] = system: SN12C renal
[9] = system: TK-10 renal
[10] = system: UACC-257 melanoma

## CC1(C)C2C/C(=C\c3ccccc3)C(=O)C1C2 (stereo not drawn)
[1]
  TGI: > 100 µM
[2]
  TGI: > 100 µM
[3]
  TGI: > 100 µM
[4]
  TGI: > 100 µM
[5]
  TGI: > 100 µM
[6]
  TGI: > 100 µM
[7]
  TGI: > 100 µM
[8]
  TGI: > 100 µM
[9]
  TGI: > 100 µM
[10]
  TGI: > 100 µM

## Cc1cc(=O)oc2cc(OCc3nc4ccccc4c(=O)[nH]3)ccc12
[1]
  TGI: > 100 µM
[2]
  TGI: > 100 µM
[3]
  TGI: > 100 µM
[4]
  TGI: > 100 µM
[5]
  TGI: > 100 µM
[6]
  TGI: > 100 µM
[7]
  TGI: > 100 µM
[8]
  TGI: > 100 µM
[9]
  TGI: > 100 µM

## Cc1cccc2c1C(=O)OC2(C)c1cccc2ccccc12 (stereo not drawn)
[1]
  TGI: > 100 µM
[2]
  TGI: > 100 µM
[4]
  TGI: 46.2 µM
[5]
  TGI: 61.4 µM
[6]
  TGI: > 100 µM
[7]
  TGI: > 100 µM
[8]
  TGI: 56 µM
[9]
  TGI: 95.2 µM
[10]
  TGI: > 100 µM

## O=C(/C=C1/NC(=O)CS1)Nc1ccccc1
[1]
  TGI: > 100 µM
[3]
  TGI: > 100 µM
[4]
  TGI: > 100 µM
[5]
  TGI: > 100 µM
[6]
  TGI: > 100 µM
[7]
  TGI: > 100 µM
[8]
  TGI: > 100 µM
[9]
  TGI: > 100 µM

## CC(=O)c1c[nH]cc1CO
[1]
  TGI: > 10 µM
[2]
  TGI: > 10 µM
[3]
  TGI: > 10 µM
[4]
  TGI: > 10 µM
[5]
  TGI: > 10 µM
[6]
  TGI: > 10 µM
[7]
  TGI: > 10 µM
[8]
  TGI: > 10 µM
[9]
  TGI: > 10 µM

## COc1cccc2c(=O)c3c(sc12)c(NCCN(C)C)nc1ccccc13
[1]
  GI50: 1.65 µM
  TGI: 3.16 µM
[2]
  GI50: 1 µM
  TGI: 2.22 µM
[3]
  GI50: 1.2 µM
  TGI: 2.86 µM
[4]
  GI50: 1.64 µM
  TGI: 3.42 µM
[5]
  GI50: 1.03 µM
  TGI: 3.53 µM
[6]
  GI50: 1.02 µM
  TGI: 2.8 µM
[7]
  GI50: 1.83 µM
  TGI: 3.59 µM
[8]
  GI50: 1.15 µM
  TGI: 2.58 µM
[10]
  GI50: 1.72 µM
  TGI: 3.5 µM

## O=C(/C=C/c1ccc(C(F)(F)F)cc1)c1ccc(Nc2nc(NCCO)nc(N3CCOCC3)n2)cc1
[1]
  GI50: 1.65 µM
  TGI: 3.1 µM
[2]
  GI50: 1.86 µM
  TGI: 3.86 µM
[3]
  GI50: 2.09 µM
  TGI: 4.08 µM
[4]
  GI50: 2.92 µM
  TGI: 8.64 µM
[5]
  GI50: 2.48 µM
  TGI: 9.2 µM
[6]
  GI50: 2.33 µM
  TGI: > 100 µM
[7]
  GI50: 2.91 µM
  TGI: 10.2 µM
[8]
  GI50: 2.22 µM
  TGI: 5.69 µM
[10]
  GI50: 3.98 µM
  TGI: 17.8 µM

## COc1ccc2c(c1)OC(N)=C(C#N)C2c1ccc(F)cc1 (stereo not drawn)
[1]
  GI50: 3.96 µM
  TGI: > 100 µM
[2]
  GI50: 6.35 µM
  TGI: > 100 µM
[3]
  GI50: 1.74 µM
  TGI: 10.1 µM
[4]
  GI50: 0.45 µM
  TGI: 7.15 µM
[5]
  GI50: 8.52 µM
  TGI: 75.5 µM
[7]
  GI50: 12.9 µM
  TGI: 77.9 µM
[8]
  GI50: 6.82 µM
  TGI: > 100 µM
[9]
  GI50: 5.83 µM
  TGI: > 100 µM
[10]
  GI50: 24.5 µM
  TGI: > 100 µM

## COc1ccc(/C=C/C(=O)c2cc3c(N)c(C(=O)Nc4ccccc4)sc3nc2C)cc1
[1]
  GI50: 0.276 µM
  TGI: > 16 µM
[2]
  GI50: 0.344 µM
  TGI: > 23 µM
[4]
  GI50: 0.119 µM
  TGI: 0.342 µM
[5]
  GI50: 1.17 µM
  TGI: 14 µM
[6]
  GI50: 0.14 µM
  TGI: > 50 µM
[7]
  GI50: 1.7 µM
  TGI: > 50 µM
[8]
  GI50: 0.311 µM
  TGI: > 21 µM
[9]
  GI50: 1.27 µM
  TGI: > 50 µM
[10]
  GI50: 18 µM
  TGI: > 50 µM

## O=C1C[C@H]2CC3(CC[C@H]2CN1)OCCO3
[1]
  TGI: > 100 µM
[3]
  TGI: > 100 µM
[4]
  TGI: > 100 µM
[5]
  TGI: > 100 µM
[6]
  TGI: > 100 µM
[7]
  TGI: > 100 µM
[8]
  TGI: > 100 µM
[9]
  TGI: > 100 µM
[10]
  TGI: > 100 µM

## C/C(=C\CC[C@]1(C)OC(C)(C)OC1CC/C(C)=C/CO[Si](c1ccccc1)(c1ccccc1)C(C)(C)C)CC/C=C/CO[Si](C)(C)C(C)(C)C (stereo partly drawn)
[1]
  TGI: > 100 µM
[2]
  TGI: > 100 µM
[4]
  TGI: > 100 µM
[5]
  TGI: > 100 µM
[6]
  TGI: > 100 µM
[7]
  TGI: > 100 µM
[8]
  TGI: > 100 µM
[9]
  TGI: > 100 µM
[10]
  TGI: > 100 µM

## CCCN(CCC)C(=O)[C@H](CC)[C@@H]1CC[C@@H](C)[C@@H]([C@H](C)[C@@H](O)[C@@H](C)C(=O)[C@H](CC)C2O[C@]3(C=C[C@@H](O)[C@]4(CC[C@@](C)([C@H]5CC[C@](O)(CC)[C@H](C)O5)O4)O3)[C@H](C)C[C@@H]2C)O1 (stereo partly drawn)
[1]
  GI50: 2.79 µM
  TGI: 9 µM
[2]
  GI50: 3.18 µM
  TGI: 10.3 µM
[4]
  GI50: 2.26 µM
  TGI: 5.54 µM
[5]
  GI50: 1.29 µM
  TGI: 4.24 µM
[6]
  GI50: 2.68 µM
  TGI: 13 µM
[7]
  GI50: 1.72 µM
  TGI: 3.71 µM
[8]
  GI50: 2.13 µM
  TGI: 6.1 µM
[9]
  GI50: 3.3 µM
  TGI: 68.3 µM
[10]
  GI50: 2.84 µM
  TGI: 9.83 µM
